The results in this text go back to patent US12378204B2, “Triazole compounds and preparation method therefor and use thereof” (WUHAN LL SCIENCE AND TECHNOLOGY DEVELOPMENT CO., LTD., priority 2019, dated 2025).

Bounds are passed on as bounds.

Common to all, as to format: cell-based
In data set [1] the target is T1, hLPAR1 (human lysophosphatidic acid receptor 1) (Homo sapiens, UniProt Q92633).
T1 construct: expressed in transfected cells
As to the kind of experiment: FLIPR intracellular calcium assay, hLPAR1 expressed in CHO-K1 cells. The note with it: antagonism of 1 μM LPA-induced calcium increase, CHO-K1 cells expressing hLPAR1; read-out: LPAR1 IC50. On the procedure:
The antagonist property of the compounds disclosed herein was determined using the FLIPR (fluorescence imaging plate reader) method, wherein the compounds are inhibitors for the intracellular calcium increase induced by activation of hLPAR1 (human lysophosphatidic acid receptor 1, accession No. NM_001401.4) expressed in CHO-K1 cells (Chinese hamster ovary cells K1, ATCC).
CHO-K1 cells stably expressing hLPAR1 were cultured in F-12 medium containing 10% FBS (fetal bovine serum, Gibco, 10099-141), 1% penicillin-streptomycin (Gibco, 15140-122) and 0.4 mg/mL hygromycin B (Gibco, 10687010) in a cell incubator (37° C., […]). During 18-24 h prior to the FLIPR experiment, cells at 250,000 cells/mL were seeded into a 96-well plate (25,000 cells/well) and incubated overnight in the cell incubator. On the day of the experiment, the medium was discarded and the cells were washed in a FLIPR buffer (0.3 mL of probenecid (Thermo, P36400), 0.6 mL of 1 M HEPES (Invitrogen, 15630080) and 29.1 mL of HBSS (Invitrogen, 14065056) per 30 mL of buffer). Each well was added with 75 μL of 1 mM Fluo-4 AM fluorescent dye (Thermo, F14202) and then the cells were subjected to dye-loading incubation at 37° C. for 1.0 h. The 96-well plate was then washed once with buffer, added with a buffer containing a test compound or vehicle at 50 μL per well and then incubated for 30 min at room temperature. The cell plate was then placed in the FLIPR for baseline fluorescence measurements (excitation at 485 nm and emission at 525-535 nm). An agonist (oleoyl-L-α-lysophosphatidic acid sodium salt (Sigma, L7260) at a final concentration of 1 μM) or a vehicle (ultrapure water) was then added at 50 μL/well, fluorescence values were measured for 2 min at 1-second intervals, and finally the output fluorescence counts were analyzed.

Data set [2] can be described thus: In vitro cytotoxicity assay in HepG2 cells, CCK-8 method. As to conditions: human, 48 h incubation. The procedure: In vitro cytotoxicity assay for the compounds disclosed herein was performed in HepG2 cells using the CCK-8 method. HepG2 cells (Beina Bio) in the logarithmic growth phase were collected, the concentration of cell suspension was adjusted, and then the cells were plated on a 96-well cell culture plate at 50,000 cells/well. • The cells were then incubated overnight in a cell incubator (5% CO2, 37° C.), and after 80-90% cell confluence was achieved, test compounds or vehicle (DMSO) at various concentration gradients were added after medium change. The resulting mixture was incubated in the cell incubator (5% CO2, 37° C.) for 48 h. After the treatment, the medium in the plate was discarded. The plate was washed twice with PBS, added with CCK-8 working solution (Beyotime) at 100 μL per well, and then incubated at 37° C. for 1.5 h in the dark. Absorbance at OD450nm was measured for each well on a microplate reader, and CC50 value of each compound was analyzed and calculated.
(Formazan colour is commonly taken as a measure of viable cells.)

For data set [3], the system named is A2058 (human melanoma cells). The data set can be described thus: A2058 cell scratch assay (cell migration inhibition). The note with it: A2058 scratch area 0 h vs 24 h, 10 μM LPA, read-out: Cell migration inhibition rate. On the procedure: The activity of the compounds disclosed herein at the cell level in vitro is evaluated by A2058 (human melanoma cells, Beina Bio, BNCC341099) cell scratch assay. The inhibitory activity of the compounds against LPAR1 can be reflected by inhibition of cell scratch healing.
A2058 cells in a T75 cm^2 cell culture flask were digested and gently pipetted into single cells, adjusted to a cell density of 4×10^5 cells/mL, and then seeded into a 24-well plate. After the cell confluence reached 80%, the cell culture plate was taken out and the original medium was discarded. Serum-free medium was then added, and the cells were starved overnight in an incubator (37° C., 5% CO2). The cell culture plate was then taken out, and cell scratches were made along the diameter of the wells using a 200 μL pipette tip. The cell culture plate was then added with 500 μL of serum-free medium and then shaken gently to wash away the residual cells on the scratched surface, and this was repeated twice. The medium was discarded and 500 μL of 1% FBS medium containing the compound was then added, and the mixture was incubated at 37° C. for 30 min. […] Olympus CKX53 was used to observe the scratches, and MShot image analysis system was used to take pictures and measure the scratch area at 0 h. Then the cell culture plate was incubated in the incubator (37° C., 5% CO2). 24 h later, the scratches were observed again with Olympus CKX53, and MShot image analysis system was used to take pictures and measure the scratch area at 24 h. Cell migration inhibition rate was calculated according to the following formula: […]

T1 sequence (Q92633 whole entry): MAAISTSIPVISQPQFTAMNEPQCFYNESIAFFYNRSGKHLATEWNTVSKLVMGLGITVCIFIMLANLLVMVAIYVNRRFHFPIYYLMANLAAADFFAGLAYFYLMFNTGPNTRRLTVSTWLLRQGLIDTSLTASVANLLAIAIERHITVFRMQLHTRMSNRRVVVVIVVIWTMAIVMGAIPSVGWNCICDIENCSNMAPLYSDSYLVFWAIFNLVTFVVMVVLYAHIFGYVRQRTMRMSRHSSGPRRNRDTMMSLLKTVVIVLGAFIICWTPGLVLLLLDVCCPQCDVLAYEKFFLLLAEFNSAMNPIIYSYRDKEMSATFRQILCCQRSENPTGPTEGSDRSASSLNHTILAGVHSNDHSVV

The IC50 is the concentration needed to halve the response being measured. In the case of `CN(Cc1ccccc1)C(=O)OCc1c(C2CC2O[C@H]2CCC[C@H](C(=O)O)C2)nnn1C` (mixture of isomers) [Compound 32], the IC50 in data set [1] fell in the range of 0.3 to 10 µM.
One may read the CC50 as the concentration at which the toxic effect on the cells reaches its halfway point. `CN(Cc1ccccc1)C(=O)NCc1c(-c2ccc(O[C@H]3CCC[C@H](C(=O)O)C3)cc2)nnn1C` (racemic) [Compound 1] returned a CC50 at 48 h in data set [2] above 200 µM. The half-maximal inhibitory concentration (IC50) in data set [1] was in the range of 0.05 to 0.3 µM. Further, the inhibition in data set [3] was 30 to 50%.
Turning to `Cn1nnc(-c2ccc(O[C@H]3CCC[C@H](C(=O)O)C3)cc2)c1CNC(=O)/C=C/c1ccccc1` (racemic) [Compound 5], in data set [2], the CC50 at 48 h was above 200 µM. Also, in data set [1], the IC50 fell in the range of 0.3 to 10 µM. Moreover, the inhibition in data set [3] is 0 to 30%.
`CN(Cc1ccccc1)C(=O)OCc1cn(-c2ccc(O[C@H]3CCC[C@H](C(=O)O)C3)cc2)nn1` (racemic) [Compound 6, (+/−)-(1S,3S)-3-(4-(4-(((benzyl(methyl)carbamoyl)oxo)methyl)-1H-1,2,3-triazol-1-yl)phenoxy)cyclohexane-1-carboxylic acid] yielded a CC50 at 48 h in data set [2] above 200 µM. Also, in data set [1], the IC50 lay in the range of 0.05 to 0.3 µM. In addition, the inhibition in data set [3] lay within 30 to 50%.
`CN(Cc1ccccc1)C(=O)OCc1c(-c2ccc(O[C@H]3CCC[C@H](C(=O)O)C3)o2)nnn1C` (racemic) [Compound 12]: the half-maximal cytotoxic concentration (CC50) at 48 h in data set [2] was above 200 µM. Besides, the IC50 in data set [1] is 0.3 to 10 µM. In data set [3], the inhibition fell in the range of 0 to 30%.
On the same counts, the results for `Cc1ncc(-c2c(-c3ccc(O[C@H]4CCC[C@H](C(=O)O)C4)cc3)nnn2C)o1` (racemic) [Compound 15, (+/−)-(1S,3S)-3-(4-(1-methyl-5-(2-methyloxazol-5-yl)-1H-1,2,3-triazol-4-yl)phenoxy) cyclohexane-1-carboxylic acid] are above 200 µM, 0.3 to 10 µM and 30 to 50%.
In turn, `Cn1nnc(-c2ccc(O[C@H]3CCC[C@H](C(=O)O)C3)cc2)c1Cn1ccn(Cc2ccccc2)c1=O` (racemic) [Compound 16, (+/−)-(1S,3S)-3-(4-(5-((3-benzyl-2-carbonyl-2,3-dihydro-1H-imidazol-1-yl)methyl)-1-methyl-1H-1,2,3-triazol-4-yl)phenoxy)cyclohexane-1-carboxylic acid] registered a 50% cytotoxic concentration (CC50) at 48 h in data set [2] above 200 µM. Further, the 50% inhibitory concentration (IC50) in data set [1] is 0.3 to 10 µM. For the same compound, the inhibition in data set [3] was 30 to 50%.
As for `Cn1nnc(-c2ccc(O[C@H]3CCC[C@H](C(=O)O)C3)cc2)c1CN1CCN(Cc2ccccc2)C1=O` (racemic) [Compound 17, (+/−)-(1S,3S)-3-(4-(5-((3-benzyl-2-carbonylimidazolidin-1-yl)methyl)-1-methyl-1H-1,2,3-triazol-4-yl)phenoxy)cyclohexane-1-carboxylic acid], the CC50 at 48 h in data set [2] was above 200 µM. Moreover, in data set [1], the IC50 was 0.05 to 0.3 µM. For the same compound, in data set [3], the inhibition was 0 to 30%.
On to `Cn1nnc(-c2ccc(O[C@H]3CCC[C@H](C(=O)O)C3)cc2)c1CS(=O)(=O)NC1CCCC1` (racemic) [Compound 33], for which, in data set [1], the concentration for half-maximal inhibition (IC50) was in the range of 0.3 to 10 µM.
The same measure, in the same setting: then `Cc1nnn(-c2ccc(O[C@H]3CCC[C@H](C(=O)O)C3)cc2)c1N(C)C(=O)OC1CCCC1` (racemic) [Compound 34], with 0.3 to 10 µM; and `Cn1nnc(-c2ccc(O[C@H]3CCC[C@H](C(=O)O)C3)cc2)c1NCC1CCCC1` (racemic) [Compound 36], with 0.3 to 10 µM.
With `Cn1nnc(-c2ccc(O[C@H]3CCC[C@H](C(=O)O)C3)cc2)c1NC(=O)Cc1ccccc1` (racemic) [Compound 37], the half-maximal inhibitory concentration (IC50) in data set [1] is 0.3 to 10 µM.
Consider `Cn1nnc(-c2ccc(O[C@H]3CCC[C@H](C(=O)O)C3)cc2)c1CNc1ncc(C2CCCC2)o1` (racemic) [Compound 38], for which the IC50 in data set [1] fell in the range of 0.3 to 10 µM.
Regarding `Cn1nnc(C#CO[C@H]2CCC[C@H](C(=O)O)C2)c1COc1nccc(C2CC2)n1` (racemic) [Compound 39], the IC50 in data set [1] was at most 0.05 µM.
For the compound `CN(C(=O)OCc1c(-c2ccc(O[C@H]3CCC[C@H](C(=O)O)C3)cc2)nnn1C1CC1)C1CCCC1` [Compound 35], the half-maximal inhibitory concentration (IC50) in data set [1] was 0.3 to 10 µM.
